Measurements published in patent publication US20250122581A1, “TUMOR AND METASTASIZING MARKER” (UNIVERSITAET ZU KOELN, priority 2017, published 2025).

Experiments:
Vim3 [1] = assay: Immunohistochemistry of Vim3 in breast cancer specimens and metastases after tamoxifen treatment; type: in vivo, human
Description: (§1) The dependency of the overexpression of Vim3 due to ET-1 presence and after tamoxifen treatment was shown in cell culture experiments and analyzed via Western blot. The expression of Vim3and ET-1 was analyzed in paraffin-embedded tissue samples of patients with metastatic breast cancers after tamoxifen treatment. MCF-7 cells were cultured under normal conditions and treated with the mentioned substances. Tamoxifen treatment was performed 1 hour prior ET-1 or β-estradiol treatment. Nuclear extracts were isolated and analyzed via Western blot under standard conditions. A Proximity Ligation Assay (PLA) assay was performed according to the manufacturer's protocol. From cells after treatment, the mRNA was isolated and qRT-PCR was performed. Immunohistochemistry was performed according to standardized conditions.
Vim3 Expression in Invasive Ductal Breast Carcinoma, and Its Metastases From the pre-evaluation of breast cancer specimen via tissue-microarray it was known that ET-1 and Vim3 staining could be detected in tumor cells, while vimentin full length was only positive in the interstitial tissue. To analyze the expression of the newly described target gene Vim3 in more detail, its expression was investigated in […] biopsies and their respective resection specimens of breast cancer cases. […] In each biopsy, Vim3 was detected, either in nuclear (20/25; strong expression: 3+) and/or diffuse cytoplasmic (25/25) localization. After Tam treatment, seventeen respective resection specimens were still diffusely positive for Vim3, now mainly in a cytoplasmic localization (12/17), with nuclear localization additionally found in 5 specimens (5/17). In 4 cases, lymph node but no other metastases were reported (4/28). In contrast, 7 cases developed organ metastases (7/28), of which 3 had additional lymph node metastases.
The expression of Vim3 and ERB was investigated in resection specimens and their metastases. In a set of 8 cases positive for ERa after tam pretreatment, it was found again a diffuse cytoplasmic expression of Vim3. In addition, in […] metastases (pleura 2×, skin 2×, bone 3×, uterus 1×, liver 1×, soft tissue 1x) Vim3 was also expressed (cytoplasm: 12/12; additional nuclear expression 5/12). In 7 of the 12 metastases, a 3+ nuclear expression for ERB was found, which was in all investigated cases accompanied by Vim3 expression.

Vim3 [2] = assay: Vim3 expression analysis by qRT-PCR in treated MX-1 cells; type: cell-based; settings: combinational stimulation with Tam
Description: MCF-7 cells were cultured under normal conditions and treated with the mentioned substances. Tamoxifen treatment was performed 1 hour prior ET-1 or β-estradiol treatment. […] From cells after treatment, the mRNA was isolated and qRT-PCR was performed.

Vim3 [3] = assay: Western blot with densitometry of Vim3 in total cell extract of stimulated MCF-7; type: cell-based; settings: combined Tam plus ET-1 pretreatment versus ET-1 alone, p<0.001
Description: WB with 20 μg non-precipitated total cell extract of stimulated MCF-7. The corresponding densitometric analysis of the present bands of a protein analysis on the WB membrane where the intense band of Vim3 (47 kDa) is striking as compared to the very faint band of GAPDH in the same sample is shown with ImageJ, where the background and the control had been subtracted.
Furthermore, the effect of Tam was studied with regard to its translational capacity for Vim3 after a combined Tam plus ET-1 pretreatment versus ET-1 alone. […] Tam upregulates Vim3.

ET-1 = assay: Western blot of nuclear extracts of treated MCF-7 breast cancer cells; type: cell-based; settings: nuclear extracts from breast cancer cells after Tamoxifen treatment
Description: as §1

Vim3 [4] = assay: Vim3 expression analysis by qRT-PCR in treated MCF-7 cells; type: cell-based; settings: combined pretreatment with tamoxifen and β-estradiol/ET-1, p<0.01
From the text: FIG. 25A-FIG. 25C show Vim3 expression analysis of treated MX-1 (FIG. 25A; FIG. 25B) and MCF-7 (FIG. 25C) cells by qRT-PCR analysis. […] In both diagrams the increase in Vim3 expression up to ca 700 RFU upon a combinational stimulation with Tam is decisive. Data shown is derived from quadruplicates from an independent experiment. *P<0.05, **P<0.01 and ***P<0.001.
as §1

Vimentin 3 = assay: Cell culture experiments after ET-1 treatment, Western blot; type: cell-based; settings: cell culture (DU145)
Description: Furthermore, cell culture experiments were conducted after ET-1 treatment over different time points and analyzed via Western blot the expression of the different proteins mentioned above. For the ET-1 ELISA and Vim3 ELISA 100 μl of serum was used. DU145 cells were cultured under normal conditions and treated with the substances mentioned. Cells were scratched before treatment. The ET-receptors were blocked 1 h before ET-1 stimulation. Immunofluorescence was performed on paraffin-embedded prostate cancer samples. This immunofluorescence has been carried out as described in Example 1 above. In addition to Vim3-specific antibodies, also Atg7- and pg3-specific primary antibodies have been used.

[5] = breast cancer resection specimens, positive/total

| SMILES | mastectomies with cytoplasmic Vim3 staining after Tam (Vim3 [1]; biopsies before Tam: nuclear positivity 19/21) | resection specimens with additional nuclear Vim3 localization after Tam treatment (Vim3 [1]; [5]) | resection specimens with cytoplasmic Vim3 localization after Tam treatment (Vim3 [1]; [5]) | Vim3 level in tamoxifen-treated tumors and metastases (Vim3 [1]; patients with metastatic breast cancers after tamoxifen treatment) | Vim3 expression (qRT-PCR) (Vim3 [2]) [RFU] | formation of Vim3 protein (Western blot densitometry) (Vim3 [3]) | ET-1 signal in the nuclear fraction (ET-1) | ET-1 signal in the nuclear fraction (ET-1; listed as Tamoxifen) | mRNA Vim3 expression (Vim3 [4]) | Vimentin 3 production after ET-1 treatment (Vimentin 3) |
| --- | --- | --- | --- | --- | --- | --- | --- | --- | --- | --- |
| CC/C(=C(\c1ccccc1)c1ccc(OCCN(C)C)cc1)c1ccccc1 [tamoxifen] | 13/17 | 5/17 | 12/17 | an increase of Vim3 was found in both, the tumor as well as the metastases | ~700 | highly statistically significant induced formation of Vim3 | ET-1 expression is triggered | significant upregulation of the ET-1 signal in the nuclear fraction | clear increase in mRNA Vim3 expression | – |
| CC[C@H](C)[C@H](NC(=O)[C@H](CC(=O)O)NC(=O)[C@H](CC(C)C)NC(=O)[C@H](Cc1c[nH]cn1)NC(=O)[C@@H]1CSSC[C@H](N)C(=O)N[C@@H](CO)C(=O)N[C@H]2CSSC[C@H](NC(=O)[C@H](CCC(=O)O)NC(=O)[C@H](CCCCN)NC(=O)[C@H](CC(=O)O)NC(=O)[C@H](CCSC)NC(=O)[C@H](CC(C)C)NC(=O)[C@H](CO)NC(=O)[C@H](CO)NC2=O)C(=O)N[C@@H](C(C)C)C(=O)N[C@@H](Cc2ccc(O)cc2)C(=O)N[C@@H](Cc2ccccc2)C(=O)N1)C(=O)N[C@H](C(=O)N[C@@H](Cc1c[nH]c2ccccc12)C(=O)O)[C@@H](C)CC [ET-1, Endothelin-1] | – | – | – | – | – | – | – | – | – | produce more Vimentin 3 |
